These results are taken from patent publication US6262305A, “Process and intermediates for preparing 3-(substituted phenyl)-5-(thienyl or furyl)-1,2,4-triazole compounds” (priority 1999, dated 2001).

In this assay the test system is Cotton Aphid. Briefly: Seed Treatment Test vs. Cotton Aphid on Squash. The assay is classed as in vivo, Aphis gossypii. The method, then: Seed Treatment Test vs. Cotton Aphid on Squash
Four-inch pots were filled two-thirds full with sieved soil mix (70 sand/30 pulverized soil). Compound was applied as a suspension to the center in 4 ml volume. Squash seed placed in the applied chemical zone was covered with soil mix 1 cm deep. […] The plants were then infested with aphids. Four days later, aphid counts were made.

Molecules are shown by their SMILES.

Regarding `Cn1nc(-c2c(F)cccc2Cl)nc1-c1sc(Cl)c(Cl)c1Cl` [Compound 2, 3-(2-chloro-6-fluorophenyl)-5-(3,4,5-trichlorothien-2-yl)-1-methyl[1,2,4]triazole], for the setting “0.8 mg/pot”, the “% Ctrl., cotton aphid on Squash - 1st True Leaf” value is 85.8%; the “Cotton aphid counts on Squash - 1st True Leaf, Mean” value turned out to be 12.0; the “% Ctrl., cotton aphid on Squash - cotyledon” value is 54.4%; the “Cotton aphid counts on Squash - cotyledon, Mean” value is on record as 48.0. For the same compound, under “3.2 mg/pot”, the “% Ctrl., cotton aphid on Squash - 1st True Leaf” value amounted to 95.9%; the “Cotton aphid counts on Squash - 1st True Leaf, Mean” value is recorded as 3.5; the “% Ctrl., cotton aphid on Squash - cotyledon” value is recorded as 93.1%; the “Cotton aphid counts on Squash - cotyledon, Mean” value is reported as 7.3. For the setting “12.8 mg/pot”, the “% Ctrl., cotton aphid on Squash - 1st True Leaf” value is given as 96.1%; the “Cotton aphid counts on Squash - 1st True Leaf, Mean” value is 3.3; the “% Ctrl., cotton aphid on Squash - cotyledon” value is given as 93.3%; the “Cotton aphid counts on Squash - cotyledon, Mean” value is listed as 7.0.

Take `Cn1nc(-c2c(Cl)cccc2Cl)nc1-c1sc(Cl)c(Cl)c1Cl` [Compound 45, 3-(2,6-dichlorophenyl)-5-(3,4,5-trichlorothien-2-yl)-1-methyl[1,2,4]triazole]: where the note is “0.8 mg/pot”, the “% Ctrl., cotton aphid on Squash - 1st True Leaf” value is 51.7%; the “Cotton aphid counts on Squash - 1st True Leaf, Mean” value worked out at 40.8; the “% Ctrl., cotton aphid on Squash - cotyledon” value is 0%; the “Cotton aphid counts on Squash - cotyledon, Mean” value amounted to 165.5. For the setting “3.2 mg/pot”, the “% Ctrl., cotton aphid on Squash - 1st True Leaf” value is 77.8%; the “Cotton aphid counts on Squash - 1st True Leaf, Mean” value turned out to be 18.8; the “% Ctrl., cotton aphid on Squash - cotyledon” value is 52.3%; the “Cotton aphid counts on Squash - cotyledon, Mean” value turned out to be 50.3. For the setting “12.8 mg/pot”, the “% Ctrl., cotton aphid on Squash - 1st True Leaf” value came to 90.2%; the “Cotton aphid counts on Squash - 1st True Leaf, Mean” value amounted to 8.3; the “% Ctrl., cotton aphid on Squash - cotyledon” value is on record as 24.0%; the “Cotton aphid counts on Squash - cotyledon, Mean” value is 80.0.

Take `O=[N+]([O-])NC1=NCCN1Cc1ccc(Cl)nc1` [Imidacloprid, reference compound]: where the note is “0.05 mg/pot”, the “% Ctrl., cotton aphid on Squash - 1st True Leaf” value is recorded as 58.5%; the “Cotton aphid counts on Squash - 1st True Leaf, Mean” value stood at 35.0; the “% Ctrl., cotton aphid on Squash - cotyledon” value amounted to 97.6%; the “Cotton aphid counts on Squash - cotyledon, Mean” value worked out at 2.5. Also, for the setting “0.2 mg/pot”, the “% Ctrl., cotton aphid on Squash - 1st True Leaf” value amounted to 88.4%; the “Cotton aphid counts on Squash - 1st True Leaf, Mean” value stood at 9.8; the “% Ctrl., cotton aphid on Squash - cotyledon” value is 100%; the “Cotton aphid counts on Squash - cotyledon, Mean” value is 0. Under “0.8 mg/pot”, the “% Ctrl., cotton aphid on Squash - 1st True Leaf” value turned out to be 100.0%; the “Cotton aphid counts on Squash - 1st True Leaf, Mean” value amounted to 0.0; the “% Ctrl., cotton aphid on Squash - cotyledon” value was 100%; the “Cotton aphid counts on Squash - cotyledon, Mean” value was determined as 0.
